The results in this text go back to patent publication US20260159539.

Read-outs that look alike come from different tables or passages of the source.

Regarding `COC(=O)[C@@H]1Cc2cc(I)cc(c2)OC[C@@H]2[C@H](CCN2C(=O)OC(C)(C)C)C(=O)N(C)[C@@H](C(C)C)C(=O)N1`, the ring closure, isolated yield (from COC(=O)[C@H](Cc1cc(O)cc(I)c1)NC(=O)[C@H](C(C)C)N(C)C(=O)[C@H]1CCN(C(=O)OC(C)(C)C)[C@@H]1COS(=O)(=O)c1ccc(C)cc1, ether bond, 14-membered ring, K2CO3/KI, DMF, 12.2 mM, 80.0 °C, 2.0 h) is 66%.

“tert-butyl (3aS,6S,9S,15S,32aS)-6-isopropyl-21-(2-((S)-1-methoxyethyl)-5-(4-(oxetan-3-yl)piperazin-1-yl)pyridin-3-yl)-5,19,19-trimethyl-4,7,10,16-tetraoxo-22-(2,2,2-trifluoroethyl)-2,3,3a,4,5,6,7,8,9,10,13,14,15,16,18,19,20,22,32,32a-icosahydro-1H,12H-11,15-epimino-23,25-etheno-9,28-methano-26,30-(metheno)dipyrrolo[2,3-c:3′,4′-v][1,18]dioxa[6,9,12]triazacyclotriacontine-1-carboxylate”: the ring closure, isolated yield (ether bond, 14-membered ring) came to 76%.

In turn, `CCn1c(-c2cc(N3CCN(C4CC4)CC3)cnc2[C@H](C)OC)c(CC(C)(C)CO)c2cc(-c3cc4cc(c3)C[C@@H](C(=O)OC)NC(=O)[C@H](C(C)C)N(C)C(=O)[C@H]3CCCN(C(C)=O)N3CC4)ccc21` showed a ring closure, isolated yield (from CCn1c(-c2cc(N3CCN(C4CC4)CC3)cnc2[C@H](C)OC)c(CC(C)(C)CO)c2cc(-c3cc(CCN4[C@@H](C(=O)O)CCCN4C(C)=O)cc(C[C@H](NC(=O)[C@@H](NC)C(C)C)C(=O)OC)c3)ccc21, amide bond, 14-membered ring, COMU/DIPEA, DMF, 54.0 mM, 25.0 °C, 1.0 h, 2 steps) of 42%.

Under “from CCc1c(-c2cc(N3CCN(C(=O)OCc4ccccc4)CC3)cnc2[C@H](C)OC)n(CC(C)(C)CO)c2cc(-c3cc(C[C@H](NC(=O)OC(C)(C)C)C(=O)N4CCC[C@@H](C(=O)O)N4)cc(O[Si](C(C)C)(C(C)C)C(C)C)c3)ccc12, ester bond, 18-membered ring, EDCI/HOBt/DIEA, DCM, 8.8 mM, 25.0 °C, 16.0 h, 2 steps”, `CCc1c(-c2cc(N3CCN(C(=O)OCc4ccccc4)CC3)cnc2[C@H](C)OC)n2c3cc(ccc13)-c1cc(cc(O[Si](C(C)C)(C(C)C)C(C)C)c1)C[C@H](NC(=O)OC(C)(C)C)C(=O)N1CCC[C@H](N1)C(=O)OCC(C)(C)C2` gave a ring closure, isolated yield of 48%.

The compound `COC(=O)[C@@H]1Cc2cc(Br)cc(c2)CC[C@@H]2[C@H](CCN2C(=O)OC(C)(C)C)C(=O)N(C)[C@@H](C(C)C)C(=O)N1` registered a ring closure, isolated yield (from COC(=O)[C@@H](N)Cc1cc(Br)cc(CC[C@@H]2[C@@H](C(=O)N(C)[C@H](C(=O)O)C(C)C)CCN2C(=O)OC(C)(C)C)c1, amide bond, 14-membered ring, HATU/DIEA, DMF, 16.0 mM, 25.0 °C, 1.0 h, 2 steps) of 34%.

Compound `CCn1c(-c2cc(N3CCN(C(=O)OCc4ccccc4)CC3)cnc2[C@H](C)OC)c2c3cc(ccc31)-c1cc(cc(O[Si](C(C)C)(C(C)C)C(C)C)c1)C[C@H](NC(=O)OC(C)(C)C)C(=O)N1CCC[C@H](N1)C(=O)OCC(F)(F)C2` had a ring closure, isolated yield (from CCn1c(-c2cc(N3CCN(C(=O)OCc4ccccc4)CC3)cnc2[C@H](C)OC)c(CC(F)(F)CO)c2cc(-c3cc(C[C@H](NC(=O)OC(C)(C)C)C(=O)N4CCC[C@@H](C(=O)O)N4)cc(O[Si](C(C)C)(C(C)C)C(C)C)c3)ccc21, ester bond, 18-membered ring, EDCI/HOBt/DIEA, DCM, 32.0 mM, 25.0 °C, 16.0 h, 2 steps) of 75%.

Regarding `CCn1c(-c2cc(N3CCN(C(=O)OCc4ccccc4)CC3)cnc2[C@H](C)OC)c2c3cc(ccc31)-c1cc(cc(O[Si](C(C)C)(C(C)C)C(C)C)c1)C[C@H](NC(=O)OC(C)(C)C)C(=O)N1CCC[C@H](N1)C(=O)OCC(C)(C)C2`, the ring closure, isolated yield (from CCn1c(-c2cc(N3CCN(C(=O)OCc4ccccc4)CC3)cnc2[C@H](C)OC)c(CC(C)(C)CO)c2cc(-c3cc(C[C@H](NC(=O)OC(C)(C)C)C(=O)N4CCC[C@@H](C(=O)O)N4)cc(O[Si](C(C)C)(C(C)C)C(C)C)c3)ccc21, ester bond, 18-membered ring, EDCI/HOBt/DIEA, DCM, 9.3 mM, 25.0 °C, 16.0 h) worked out at 63%.

`CCn1c(-c2cc(N3CCN(C(=O)OCc4ccccc4)CC3)cnc2[C@H](C)OC)c2c3nc(ccc31)-c1cc(cc(O[Si](C(C)C)(C(C)C)C(C)C)c1)C[C@H](NC(=O)OC(C)(C)C)C(=O)N1CCC[C@H](N1)C(=O)OCC(C)(C)C2`: the ring closure, isolated yield (from CCn1c(-c2cc(N3CCN(C(=O)OCc4ccccc4)CC3)cnc2[C@H](C)OC)c(CC(C)(C)CO)c2nc(-c3cc(C[C@H](NC(=O)OC(C)(C)C)C(=O)N4CCC[C@@H](C(=O)O)N4)cc(O[Si](C(C)C)(C(C)C)C(C)C)c3)ccc21, ester bond, 18-membered ring, EDCI/HOBt/DIEA, DCM, 32.0 mM, 25.0 °C, 16.0 h, 2 steps) was 42%.

On to `CCn1c(-c2cc(OCc3ccccc3)cnc2[C@H](C)OC)c2c3cc(ccc31)-c1cc(cc(O[Si](C(C)C)(C(C)C)C(C)C)c1)C[C@H](NC(=O)OC(C)(C)C)C(=O)N1CCC[C@H](N1)C(=O)OCC(C)(C)C2`, for which the ring closure, isolated yield (from CCn1c(-c2cc(OCc3ccccc3)cnc2[C@H](C)OC)c(CC(C)(C)CO)c2cc(-c3cc(C[C@H](NC(=O)OC(C)(C)C)C(=O)N4CCC[C@@H](C(=O)O)N4)cc(O[Si](C(C)C)(C(C)C)C(C)C)c3)ccc21, ester bond, 18-membered ring, EDCI/HOBt/DIPEA, DCM, 9.8 mM, 25.0 °C, 16.0 h, 4 steps) came out at 67%.

Where the note is “from COC(=O)[C@@H](N)Cc1cc(Br)cc(CCN2[C@@H](C(=O)N(C)[C@H](C(=O)O)C(C)C)CC[C@H]2C(=O)N(C)C)c1, amide bond, 14-membered ring, HATU/DIEA, DMF, 17.1 mM, 25.0 °C, 1.0 h, 2 steps”, `COC(=O)[C@@H]1Cc2cc(Cl)cc(c2)CCN2[C@H](CC[C@H]2C(=O)N(C)C)C(=O)N(C)[C@@H](C(C)C)C(=O)N1` returned a ring closure, isolated yield of 44%.

Take `CO[C@@H](C)c1ncc(C2CCN(C(=O)OCc3ccccc3)CC2)cc1-c1c2c3cc(ccc3n1CC(F)(F)F)-c1cc(cc(O[Si](C(C)C)(C(C)C)C(C)C)c1)C[C@H](NC(=O)OC(C)(C)C)C(=O)N1CCC[C@H](N1)C(=O)OCC(C)(C)C2`: the ring closure, isolated yield (from CO[C@@H](C)c1ncc(C2CCN(C(=O)OCc3ccccc3)CC2)cc1-c1c(CC(C)(C)CO)c2cc(-c3cc(C[C@H](NC(=O)OC(C)(C)C)C(=O)N4CCC[C@@H](C(=O)O)N4)cc(O[Si](C(C)C)(C(C)C)C(C)C)c3)ccc2n1CC(F)(F)F, ester bond, 18-membered ring, EDCI/HOBt/DIEA, DCM, 8.4 mM, 25.0 °C, 16.0 h, 3 steps) stood at 42%.

`CCOC(=O)[C@@H]1Cc2nc(Br)sc2C=C[C@@H]2[C@H](CCN2C(=O)OC(C)(C)C)C(=O)N(C)[C@@H](C(C)C)C(=O)N1` yielded a ring closure, isolated yield (from C=Cc1sc(Br)nc1C[C@H](NC(=O)[C@H](C(C)C)N(C)C(=O)[C@H]1CCN(C(=O)OC(C)(C)C)[C@@H]1C=C)C(=O)OCC, rcm bond, 13-membered ring, Grubbs G2/Ti(OiPr)4, DCM, 28.3 mM, 45.0 °C, 16.0 h) of 20%.

The compound `CCn1c(-c2cc(Oc3cccnc3)cnc2[C@H](C)OC)c2c3cc(ccc31)-c1cc(cc(O[Si](C(C)C)(C(C)C)C(C)C)c1)C[C@H](NC(=O)OC(C)(C)C)C(=O)N1CCC[C@H](N1)C(=O)OCC(C)(C)C2` had a ring closure, isolated yield (from CCn1c(-c2cc(Oc3cccnc3)cnc2[C@H](C)OC)c(CC(C)(C)CO)c2cc(-c3cc(C[C@H](NC(=O)OC(C)(C)C)C(=O)N4CCC[C@@H](C(=O)O)N4)cc(O[Si](C(C)C)(C(C)C)C(C)C)c3)ccc21, ester bond, 18-membered ring, EDCI/HOBt/DIPEA, DCM, 9.9 mM, 25.0 °C, 12.0 h, 4 steps) of 67%.

As for `CCOC(=O)[C@@H]1Cc2nc(Br)nn2/C=C/[C@@H]2[C@H](CCN2C(=O)OC(C)(C)C)C(=O)N(C)[C@@H](C(C)C)C(=O)N1`, for the setting “from C=C[C@@H]1[C@@H](C(=O)N(C)[C@H](C(=O)N[C@@H](Cc2nc(Br)nn2C=C)C(=O)OCC)C(C)C)CCN1C(=O)OC(C)(C)C, rcm bond, 13-membered ring, Grubbs G2/Ti(OiPr)4, DCM, 15.3 mM, 45.0 °C, 12.0 h”, the ring closure, isolated yield is 27%.
